SMILES strings stand for the structures.

We go through eleven compounds from patent US10538498B2, “1,3,4-oxadiazole sulfonamide derivative compounds as histone deacetylase 6 inhibitor, and the pharmaceutical composition comprising the same” (Chong Kun Dang Pharmaceutical Corp., priority 2015, dated 2020).

The experiment concerns the target T1, human recombinant HDAC6 (Homo sapiens, UniProt Q9UBN7).
T1 construct: purchased Calbiochem 382180
T1 sequence (Q9UBN7 1-1215): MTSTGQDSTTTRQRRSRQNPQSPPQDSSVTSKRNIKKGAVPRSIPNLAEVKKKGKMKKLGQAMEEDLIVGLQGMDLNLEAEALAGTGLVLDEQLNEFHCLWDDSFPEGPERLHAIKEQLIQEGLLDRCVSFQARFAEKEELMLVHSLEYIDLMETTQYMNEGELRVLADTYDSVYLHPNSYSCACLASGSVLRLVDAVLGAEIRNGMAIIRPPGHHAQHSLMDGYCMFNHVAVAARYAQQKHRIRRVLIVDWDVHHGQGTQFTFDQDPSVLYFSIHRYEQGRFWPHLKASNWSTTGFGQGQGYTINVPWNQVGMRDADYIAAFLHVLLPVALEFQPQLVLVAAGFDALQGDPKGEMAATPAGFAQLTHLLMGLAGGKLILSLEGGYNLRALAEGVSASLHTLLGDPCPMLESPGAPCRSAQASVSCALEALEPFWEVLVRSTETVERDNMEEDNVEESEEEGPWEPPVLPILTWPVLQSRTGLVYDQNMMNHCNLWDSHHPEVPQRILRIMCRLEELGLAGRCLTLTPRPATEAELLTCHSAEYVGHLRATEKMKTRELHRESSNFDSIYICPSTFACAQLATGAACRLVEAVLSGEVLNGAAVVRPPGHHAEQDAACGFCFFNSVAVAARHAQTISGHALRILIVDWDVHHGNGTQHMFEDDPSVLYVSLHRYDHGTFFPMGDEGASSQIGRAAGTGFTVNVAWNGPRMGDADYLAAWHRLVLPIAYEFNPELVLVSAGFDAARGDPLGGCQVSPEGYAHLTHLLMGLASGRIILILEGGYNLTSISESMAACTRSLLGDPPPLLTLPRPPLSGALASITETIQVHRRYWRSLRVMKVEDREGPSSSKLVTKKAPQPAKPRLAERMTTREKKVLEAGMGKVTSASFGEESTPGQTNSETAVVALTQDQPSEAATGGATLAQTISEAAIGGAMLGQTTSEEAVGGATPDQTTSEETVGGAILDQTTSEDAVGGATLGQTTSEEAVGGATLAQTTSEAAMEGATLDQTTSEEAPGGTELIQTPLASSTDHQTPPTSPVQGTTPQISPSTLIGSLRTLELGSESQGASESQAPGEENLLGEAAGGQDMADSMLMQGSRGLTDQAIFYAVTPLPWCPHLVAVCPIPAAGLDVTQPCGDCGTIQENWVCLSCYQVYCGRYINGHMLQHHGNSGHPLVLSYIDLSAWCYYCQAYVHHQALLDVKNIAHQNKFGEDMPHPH
Description: HDAC6 enzyme activity inhibition assay (HDAC Fluorimetric Drug Discovery Kit). Conditions: for HDAC6 selectivity (fold): HDAC1 vs HDAC6; for IC50: same protocol as the HDAC1 enzyme activity test. The experiment is classed as biochemical. The protocol:
In order to examine the HDAC6 selectivity of the compounds of formula I of the present invention by HDAC1 and HDAC6 enzymatic activity inhibition assays, an experiment was performed using a conventional substance as a control.
HDAC enzyme activity was measured using a HDAC Fluorimetric Drug Discovery Kit (BML-AK511, 516, Enzo Life Science). For the HDAC1 enzyme activity test, human recombinant HDAC1 (BML-SE456) was used as an enzyme source, and Fluor de Lys®-“SIRT1 (BNL-KI177) was used as a substrate. A 5-fold dilution of the compound was seeded into a 96-well plate, and then 0.3 μg of the enzyme and 10 μM of the substrate were added to each well of the plate and allowed to react at 30° C. for 60 minutes. Then, Fluor de Lys®-Developer II (BML-KI176) was added thereto and allowed to react for 30 minutes, after which the fluorescence value (Ex 360, Em 460) was measured using a multi-plate reader (Flexstation 3, Molecular Device). The HDAC6 enzyme was tested using human recombinant HDAC6 (382180) (Calbiochem) according to the same protocol as the HDAC1 enzyme activity test method. Based on the resulting values, each IC50 value was calculated using GraphPad Prism4.0 program.

As to `O=S(=O)(CCN1CCN(C2COC2)CC1)N(Cc1ccc(-c2nnc(C(F)F)o2)cc1F)c1ccc(F)c(Cl)c1` [Compound 11583, N-(3-chloro-4-fluorophenyl)-N-(4-(5-(difluoromethyl)-1,3,4-oxadiazol-2-yl)-2-fluorobenzyl)-2-(4-(oxetan-3-yl)piperazin-1-yl)ethane-1-sulfonamide], the “HDAC6 selectivity (fold)” value stood at 4348 fold and the IC50 (commonly the concentration needed to halve the response being measured) is 0.023 µM.
As for `COc1ccc(N(Cc2ccc(-c3nnc(C(F)F)o3)cn2)S(C)(=O)=O)cc1` [Compound 11346, N-((5-(5-(difluoromethyl)-1,3,4-oxadiazol-2-yl)pyridin-2-yl)methyl)-N-(4-methoxyphenyl)methanesulfonamide], the “HDAC6 selectivity (fold)” value stood at 4348 fold and the IC50 was 0.023 µM.
In the same order, the values of `CCS(=O)(=O)N(Cc1ccc(-c2nnc(C(F)F)o2)cc1F)c1ccc(CN2CCN(C(C)=O)CC2)cc1` [Compound 11402, N-(4-((4-acetylpiperazin-1-yl)methyl)phenyl)-N-(4-(5-(difluoromethyl)-1,3,4-oxadiazol-2-yl)-2-fluorobenzyl)ethanesulfonamide] are 1316 fold and 0.076 µM.
In the same order, the values of `O=S(=O)(C1CCN(C2CC(O)C2)CC1)N(Cc1ccc(-c2nnc(C(F)F)o2)cn1)c1ccccc1` (stereo not shown) [Compound 11791, N-((5-(5-(difluoromethyl)-1,3,4-oxadiazol-2-yl)pyridin-2-yl)methyl)-1-(3-hydroxycyclobutyl)-N-phenylpiperidine-4-sulfonamide] are 2114 fold and 0.0473 µM.
In the same order, the values of `CCC(C)S(=O)(=O)N(Cc1ccc(-c2nnc(C(F)F)o2)cc1F)c1ccccc1` (stereo not shown) [Compound 11230, N-(4-(5-(difluoromethyl)-1,3,4-oxadiazol-2-yl)-2-fluorobenzyl)-N-phenylbutane-2-sulfonamide] are 3030 fold and 0.033 µM.
In the case of `O=S(=O)(CCCN1CC[C@H](F)C1)N(Cc1ccc(-c2nnc(C(F)F)o2)cc1)c1ccccc1` [Compound 11705, (S)—N-(4-(5-(difluoromethyl)-1,3,4-oxadiazol-2-yl)benzyl)-3-(3-fluoropyrrolidin-1-yl)-N-phenylpropane-1-sulfonamide], the “HDAC6 selectivity (fold)” value is on record as 637 fold and the IC50 was 0.157 µM.
In the same order, the values of `Cc1cccc(N(Cc2ccc(-c3nnc(C(F)F)o3)cc2F)S(C)(=O)=O)c1` [Compound 11178, N-(4-(5-(difluoromethyl)-1,3,4-oxadiazol-2-yl)-2-fluorobenzyl)-N-(m-tolyl)methanesulfonamide] are 5000 fold and 0.02 µM.
With `CCS(=O)(=O)N(Cc1ccc(-c2nnc(C(F)F)o2)cn1)c1cccc(Br)c1` [Compound 11366, N-(3-bromophenyl)-N-((5-(5-(difluoromethyl)-1,3,4-oxadiazol-2-yl)pyridin-2-yl)methyl)ethanesulfonamide], the “HDAC6 selectivity (fold)” value is on record as 9091 fold and the IC50 was 0.011 µM.
As for `CN(C)CCS(=O)(=O)N(Cc1ccc(-c2nnc(C(F)F)o2)cc1)c1ccccc1` [Compound 11797, N-(4-(5-(difluoromethyl)-1,3,4-oxadiazol-2-yl)benzyl)-2-(dimethylamino)-N-phenylethane-1-sulfonamide], the “HDAC6 selectivity (fold)” value is 821 fold and the IC50 was found to be 0.122 µM.
As to `Cc1cncn1CCS(=O)(=O)N(Cc1ccc(-c2nnc(C(F)F)o2)cc1)c1ccccc1` [Compound 11807, N-(4-(5-(difluoromethyl)-1,3,4-oxadiazol-2-yl)benzyl)-2-(5-methyl-1H-imidazol-1-yl)-N-phenylethane-1-sulfonamide], the “HDAC6 selectivity (fold)” value turned out to be 1584 fold and the 50% inhibitory concentration (IC50) came to 0.0631 µM.
For the compound `CS(=O)(=O)N(Cc1ccc(-c2nnc(C(F)F)o2)cc1F)c1ccc2c(c1)OCO2` [Compound 11227, N-(benzo[d][1,3]dioxol-5-yl)-N-(4-(5-(difluoromethyl)-1,3,4-oxadiazol-2-yl)-2-fluorobenzyl)methanesulfonamide], the “HDAC6 selectivity (fold)” value came to 4348 fold and the IC50 came out at 0.023 µM.
